Laboratory results as given in PubChem BioAssay AID248 (DTP/NCI, 2004).
Inconclusive results and toxic doses are left out. Rule as the data show it: active = T/C of 150% or more; inactive = T/C below 125%.

Test system: L1210 leukemia ip in BDF1 mice, survival T/C
Assay: NCI In Vivo Anticancer Drug Screen. Data for tumor model L1210 Leukemia (intraperitoneal) in B6D2F1 (BDF1) mice
Conditions: endpoint: mean survival time, higher = longer survival
Procedure, shortened: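 In this screen, tumor-bearing mice given compound are compared to those given vehicle, and their survival values are reported as a treated-to-control quotient.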

[1] = dose: 100.0 mg/kg/injection, schedule: Q01DX001 (ip), vehicle: saline
[2] = dose: 200.0 mg/kg/injection, schedule: Q01DX001 (ip), vehicle: saline
[3] = dose: 400.0 mg/kg/injection, schedule: Q01DX001 (ip), vehicle: saline
[4] = dose: 100.0 mg/kg/injection, schedule: Q01DX009 (ip), vehicle: saline
[5] = dose: 200.0 mg/kg/injection, schedule: Q01DX009 (ip), vehicle: saline
[6] = dose: 400.0 mg/kg/injection, schedule: Q01DX009 (ip), vehicle: saline
[7] = dose: 50.0 mg/kg/injection, schedule: Q01DX001 (ip), vehicle: carboxymethylcellulose (CMC)
[8] = dose: 100.0 mg/kg/injection, schedule: Q01DX001 (ip), vehicle: carboxymethylcellulose (CMC)
[9] = dose: 200.0 mg/kg/injection, schedule: Q01DX001 (ip), vehicle: carboxymethylcellulose (CMC)
[10] = dose: 400.0 mg/kg/injection, schedule: Q01DX001 (ip), vehicle: carboxymethylcellulose (CMC)

Measured: T/C

CCCCCCCS(=O)(=O)CCCCCCC
inactive: dose: 25.6 mg/kg/injection, schedule: Q04DX002 (ip), vehicle: saline with Tween-80 95 % of control | dose: 64.0 mg/kg/injection, schedule: Q04DX002 (ip), vehicle: saline with Tween-80 91 % of control | dose: 100.0 mg/kg/injection, schedule: Q01DX009 (ip), vehicle: saline with Tween-80 94 % of control | dose: 100.0 mg/kg/injection, schedule: Q04DX003 (ip), vehicle: saline with Tween-80 93 % of control | dose: 160.0 mg/kg/injection, schedule: Q04DX002 (ip), vehicle: saline with Tween-80 91 % of control | dose: 200.0 mg/kg/injection, schedule: Q01DX009 (ip), vehicle: saline with Tween-80 94 % of control | dose: 200.0 mg/kg/injection, schedule: Q04DX003 (ip), vehicle: saline with Tween-80 95 % of control | dose: 400.0 mg/kg/injection, schedule: Q01DX009 (ip), vehicle: saline with Tween-80 98 % of control | dose: 400.0 mg/kg/injection, schedule: Q04DX002 (ip), vehicle: saline with Tween-80 95 % of control | dose: 400.0 mg/kg/injection, schedule: Q04DX003 (ip), vehicle: saline with Tween-80 90 % of control

CC(C)(C#CC(C)(C)OC(=O)Nc1ccccc1)OC(=O)Nc1ccccc1
inactive: [1] 98 % of control | [2] 95 % of control | [3] 101 % of control

ClC1=C(Cl)C(Cl)(Cl)SC1(Cl)Cl
inactive: dose: 3.12 mg/kg/injection, schedule: Q01DX009 (ip), vehicle: acetone 90 % of control | dose: 6.25 mg/kg/injection, schedule: Q01DX009 (ip), vehicle: acetone 101 % of control | dose: 12.5 mg/kg/injection, schedule: Q01DX001 (ip), vehicle: acetone 99 % of control | dose: 12.5 mg/kg/injection, schedule: Q01DX009 (ip), vehicle: acetone 96 % of control | dose: 12.5 mg/kg/injection, schedule: Q04DX003 (ip), vehicle: acetone 92 % of control | dose: 25.0 mg/kg/injection, schedule: Q01DX001 (ip), vehicle: acetone 100 % of control | dose: 50.0 mg/kg/injection, schedule: Q01DX001 (ip), vehicle: acetone 99 % of control

COc1ccc(CN2CCCN(Cc3ccc(OC)cc3OC)C2c2cccc(OC)c2O)c(OC)c1
inactive: dose: 50.0 mg/kg/injection, schedule: Q01DX001 (ip), vehicle: saline 95 % of control | [1] 92 % of control | [2] 92 % of control | [3] 95 % of control

CCCC1(CC)C(=O)NC(=S)N(C)C1=O (configuration not stated)
inactive: dose: 75.0 mg/kg/injection, schedule: Q01DX001 (ip), vehicle: carboxymethylcellulose (CMC) 95 % of control | dose: 75.0 mg/kg/injection, schedule: Q01DX001 (ip), vehicle: other 94 % of control | dose: 150.0 mg/kg/injection, schedule: Q01DX001 (ip), vehicle: carboxymethylcellulose (CMC) 98 % of control | dose: 150.0 mg/kg/injection, schedule: Q01DX001 (ip), vehicle: other 111 % of control | dose: 300.0 mg/kg/injection, schedule: Q01DX001 (ip), vehicle: carboxymethylcellulose (CMC) 104 % of control

O=C1OC(=O)c2c(Br)c(Br)c(Br)c(Br)c21
inactive: [4] 103 % of control | [5] 97 % of control | [6] 107 % of control

COCC(C)CNC(=S)Nc1ccccc1 (configuration not stated)
inactive: [7] 108 % of control | [8] 103 % of control | [9] 103 % of control | [10] 105 % of control

NC1=CCNC(=O)N1c1ccccc1
inactive: dose: 100.0 mg/kg/injection, schedule: Q01DX Z (ip), vehicle: methylcellulose (MC) 105 % of control

O=C1NCC/C1=C\c1cc2c(cc1[N+](=O)[O-])OCO2
inactive: [7] 88 % of control | [8] 90 % of control | [9] 100 % of control | [10] 90 % of control

NC(=O)NCCNC(N)=O
inactive: [4] 108 % of control | dose: 100.0 mg/kg/injection, schedule: Q04DX003 (ip), vehicle: saline 97 % of control | [5] 110 % of control | dose: 200.0 mg/kg/injection, schedule: Q04DX003 (ip), vehicle: saline 105 % of control | [6] 108 % of control | dose: 400.0 mg/kg/injection, schedule: Q04DX003 (ip), vehicle: saline 103 % of control
